The record followed here is patent US5554653A, “Inhibitors of HIV protease useful for the treatment of AIDS” (Eli Lilly and Company, priority 1992, dated 1996).

For orientation: IC50 means the concentration at which inhibition is half-maximal.

For this test, the target named is T1, HIV-1 protease (Human immunodeficiency virus type 1 group M subtype B, UniProt P04585).
T1 construct: Purified HIV-1 protease was obtained as described above; made in house; host or cells: E. coli K12 L507/pHP10D (NRRL B-18560)
In words: biochemical. The note with it: for IC50: read-out: Fluorescence Assay IC50 (converted). The format is biochemical. The procedure: C. Preparation of Protease Fraction
A culture of E. coli K12 L507/pHP10D was grown to mid-log phase at 32° C. in LB media containing 12.5 μg/ml tetracycline. The cultivation temperature was quickly elevated to 40° C. to induce gene expression, and the cells were allowed to grow for 2.5 hours at this temperature before the culture was quickly chilled on ice. The cells were centrifuged and the cell pellet was resuspended in 20 mL 50 mmol MES buffer (pH 6.0) containing 1 mmol EDTA, 1 mmol DTT, 1 mmol PMSF and 10% glycerol ("Buffer A"). Cells were lysed by sonication using a Fischer Model 300 Dismembrator and a microtip probe. Following centrifugation at 27,000×g, the supernatant was diluted to a total volume of 60 mL with Buffer A and loaded onto a 2.0×19 cm QAE-Sepharose column (1 mL/min, 4° C.), that had been equilibrated in Buffer A. The column was washed isocratically for 180 min and then eluted with a gradient eluent of 0-1.0M sodium chloride in Buffer A over 120 min. Enzymatic activity was measured by HPLC using the synthetic peptide SQNYPIV as described in Margolin et al., Biochem. Biophys. Res. Commun., 167, 554-560 (1990); the production of the p1 peptide (SQNY) was measured.
The active fractions were combined, made 1.2M in ammonium sulfate, and applied to a 2.0×18 cm hexyl agarose column that had been equilibrated in Buffer A containing 1.2M ammonium sulfate. The sample was loaded at a flow rate of 1 mL/min at 4° C., washed with the equilibration buffer for 240 min (1 mL/min) and then eluted using a reverse linear gradient of 1.2-0M ammonium sulfate in Buffer A for 120 min at the same flow rate. The column was then washed isocratically in Buffer A for 120 min.
The active fractions were combined, concentrated to 10 mL using an Amicon stirred cell with a YM-10 membrane and then applied to a MonoS cation exchange column (1.0×10 cm) that had been equilibrated in Buffer A. The sample was loaded at a flow rate of 1 mL/min at 25° C. After washing isocratically for 30 min, the protease was eluted using a linear gradient of 0-0.45M sodium chloride in Buffer A over 40 min. The column was washed isocratically in Buffer A containing 0.45M sodium chloride for 30 min.
The active fractions were combined and concentrated to 200 μL using an Amicon stirred cell and a YM-10 membrane and then the protease was applied to a Superose 6 size exclusion column equilibrated in Buffer A containing 0.1M sodium chloride.
The purified peptide was labeled with a fluorescent marker at the C-terminal end for use in the Pandex assay. N^α -Biotin-[…]OH SEQ ID NO:3. (1.206 g, 0.936 mmol) was dissolved in 100 mL of 0.1M sodium borate, pH 9.5. Then, a solution of 3 g (7.7 mmol) of fluorescein isothiocyanate in 15 mL dimethyl sulfoxide was added to the reaction mixture in 10 equal portions over two hours. The resulting mixture was allowed to react for one hour after the final addition. The solution was adjusted to pH 3 using 5N hydrochloric acid, resulting in the formation of a precipitate which was removed by centrifugation.
E. Fluorescence HIV-1 Protease Inhibitor Assay
The following buffers and solutions are used in the Fluorescence HIV-1 Protease Inhibitor Assay:
MES-ALB Buffer: 0.05M 4-morpholineethane
Avidin Coated 0.1% solution of Fluoricon
Beads Solution: Avidin Assay Particles
(Avidin conjugated to solid
polystyrene beads, 0.6-0.8
microns in diameter in TBSA
27 IU/mL of purified HIV-1
protease in MES-ALB buffer
(1 IU equals the amount of
enzyme required to hydrolyze
1 μmole of substrate per
To each well of a round bottom, 96-well plate is added 20 μL of the Enzyme Solution followed by 10 μL of the compound to be evaluated in a 20% aqueous dimethylsulfoxide solution. Purified HIV-1 protease was obtained as described above.

As to `CC(C)(C)NC(=O)c1ccccc1C[C@@H](O)[C@H](Cc1ccccc1)NC(=O)[C@@H](CS(=O)(=O)c1ccc2ccccc2c1)NS(C)(=O)=O` [Example 17B, [2R-(2R*,3S*,6S*)]-N-t-Butyl-2-[2-hydroxy-3-phenylmethyl-4-aza-5-oxo-6-N(methylsulfonyl)amino-7-naphth-2-ylsulfonyl]heptyl benzamide], the IC50 is 0.191 nM.
For `CC(=O)N[C@H](CSc1ccc2ccccc2c1)C(=O)N[C@@H](Cc1ccccc1)[C@H](O)Cc1ccccc1C(=O)NC(C)(C)C` [Example 16A, [2R-(2R*, 3S*, 6S*)]-N-t-Butyl-2-[2-hydroxy-3-phenylmethyl-4-aza-5-oxo-6-N (ethanoyl)amino-7-naphth-2-ylthio]heptyl benzamide], the IC50 is 10.6 nM.
For the compound `CC(C)(C)NC(=O)c1ccccc1C[C@@H](O)[C@H](Cc1ccccc1)NC(=O)[C@@H](COCc1ccccc1)NS(C)(=O)=O` [Example 14, [2R-(2R*, 3S*, 6R*)]-N-t-Butyl-2-[2-hydroxy-3-phenylmethyl-4-aza-5-oxo-6-N (methylsulfonyl)amino-7-benzyloxy]heptyl benzamide], the IC50 was 43.6 nM.
The same measure, in the same setting: in the case of `CC(C)(C)NC(=O)c1ccccc1C[C@@H](O)[C@H](Cc1ccccc1)NC(=O)[C@H](N)CSc1ccc2ccccc2c1` [Example 15B, [2R-(2R*,3S*,6S*)]-N-t-Butyl-2-[2-hydroxy-3-phenylmethyl-4-aza-5-oxo-6-amino-7-naphth-2-ylthio]heptyl benzamide] it was 223 nM.
In the case of `CC(C)(C)NC(=O)c1ccccc1C[C@@H](O)[C@H](Cc1ccccc1)NC(=O)[C@@H](CSc1ccccc1)NC(=O)OC(C)(C)C` [Example 22A, [2R-(2R *,3S*,6S*)]-N-t-Butyl-2-[2-hydroxy-3-phenylmethyl-4-aza-5-oxo-6-N(t-butoxycarbonyl)amino-7-phenylthio]heptyl benzamide], the IC3 (read-out: Fluorescence Assay IC3) worked out at 2 µg/mL.
Regarding `CC(C)(C)NC(=O)c1ccccc1C[C@@H](O)[C@H](Cc1ccccc1)NC(=O)[C@H](CC(N)=O)NS(=O)(=O)CCc1cccc2ccccc12` [Example 35, [2R-(2R*,3S*,6S*)]-N-t-Butyl-2-[2-hydroxy-3-phenylmethyl-4-aza-5-oxo-6-N (naphth-1-ylethylsulfonyl)amino-7-carbamoyl]heptyl benzamide], the IC50 was 1.04 nM.
On to “[2R-(2R*,3S*,6S*)]-N-t-Butyl-2-[2-hydroxy-3-phenylmethyl-4-aza-5-oxo-6-N(trifluoromethylcarbonyl)amino-7-naphth-2-ylthio]heptyl benzamide [Example 42]”, for which the “Fluorescence Assay IC50” value amounted to 0.74 ng/mL.
As to `CC(C)(C)NC(=O)c1ccccc1C[C@@H](O)[C@H](Cc1ccccc1)NC(=O)[C@@H](CSc1ccc(F)cc1)NC(=O)OC(C)(C)C` [Example 37A, [2R-(2R*,3S*,6S*)]-N-t-Butyl-2-[2-hydroxy-3-phenylmethyl-4-aza-5-oxo-6-N(t-butoxycarbonyl)amino-7-(p-fluorophenylthio)]heptyl benzamide], the IC50 is over 1570 nM.
As for `CC(C)(C)NC(=O)c1ccccc1C[C@@H](O)[C@H](Cc1ccccc1)NC(=O)[C@H](N)CSCc1ccccc1` [Example 19B, [2R-(2R*, 3S*, 6S*)]-N-t-Butyl-2-[2-hydroxy-3-phenylmethyl-4-aza-5-oxo-6-amino-7-benzylthio]heptyl benzamide], the IC16 (read-out: Fluorescence Assay IC16) stood at 1 µg/mL.
Consider `CC(C)(C)NC(=O)c1ccccc1C[C@@H](O)[C@H](Cc1ccccc1)NC(=O)[C@H](N)COCc1ccccc1` [Example 13B, [2R-(2R*,3S*,6R*)]-N-t-Butyl-2-[2-hydroxy-3-phenylmethyl-4-aza-5-oxo-6-amino-7-benzyloxy]heptyl benzamide], for which, under “read-out: Fluorescence Assay IC5”, the IC5 was 1 µg/mL.
For the compound `CCC(=O)N[C@H](CC(=O)OCc1ccccc1)C(=O)N[C@@H](Cc1ccccc1)[C@H](O)Cc1ccccc1C(=O)NC(C)(C)C` [Example 6, [2R-(2R*,3S*,6R*)]-N-t-butyl-2-[2-hydroxy-3-phenylmethyl-4-aza-5-oxo-6-N(propanoyl)amino-7-benzyloxycarbonyl]heptyl benzamide], the IC50 is 26.6 nM.
